Data set [1] deals with NHIK 3025 cells. Nature of the data set: Cell survival (colony formation) after 24 hr treatment. It counts as cell-based. The following applies: Homo sapiens, NHIK3025, 24 h. An excerpt: (§1) Human cells of the established line NHIK 3025, originating from a cervical carcinoma in situ (Nordbye, K., and Oftebro, R. Exp. Cell Res., 58: 458, 1969), Oftebro, R., and Nordbye, K., Exp. Cell Res., 58: 459-460, 1969) were cultivated in Medium E2a (Puck, T.T. et al., J. Exp. Med., 106:145-165, 1957) supplemented with 20% human (prepared at the laboratory) and 10% horse serum (Grand Island Biological Co.). The cells are routinely grown as monolayers in tissue culture flasks.
(§2) The cells were kept in continuous exponential growth by frequent reculturing, i.e., every second and third day, and synchronized cell populations with a high degree of synchrony were obtained by repeated selection of mitotic cells (Pettersen, E. O. et al, Cell Tissue Kinet., 10: 511-522, 1977). During the synchronization procedure, the cells were kept in Medium E2a, and the whole experiment took place in a walk-in incubator at 37° C. Under growth conditions as used here, the NHIK 3025 cells have a medium cell-cycle time of ~18 hr, with medium G1, S1 and G2 durations of ~7, ~8, and ~2.5 hr, respectively.
For measurement of cell survival, appropriate numbers of cells were seeded in plastic Petri dishes (.phi.=5 cm). The number of cells seeded into each dish was adjusted such that the number of surviving cells would be approximately 150 per dish. While exponentially growing (asynchronous) cells were trypsinized before seeding, synchronized cells were seeded immediately after selection. After about 2 hr, the cells had attached to the bottom of the dishes, and the treatment was started by replacing the medium with medium containing the appropriate drug concentration. After the desired time of treatment, the drug-containing medium was removed, and fresh medium was added. The dishes were rinsed once with the same medium as was to be added on addition or removal of drug. After 10 to 12 days at 37° C. in a CO2 incubator, the cells were fixed in ethanol and stained with methylene blue before the colonies were counted.
The cytotoxic effect of benzaldehyde and of deuterobenzaldehyde-d1 was tested on asynchronous, exponentially growing NHIK 3025 cells by counting the number of cells able to form colonies after 24 hr treatment in Petri dishes. In Table 1 the results represent 2 different, independent experiments where the numbers give the mean fraction of surviving cells from 10 parallel dishes (± standard error).
Fraction of cells surviving 24 hr treatment with benzaldehyde or deuterobenzaldehyde - d1 in Petri dishes. (The values represent the mean±standard error from 10 different dishes.)

The test system of data set [2] is NHIK 3025 cells. Nature of the data set: Protein synthesis rate ((3H)valine incorporation). It counts as cell-based, human. The following applies: 3.2 mM.
Text: as §1, §2
The rate of protein synthesis was calculated as described previously (Ronning, O. W. et al., J. Cell Physiol., 107: 47-57, 1981). Briefly, cellular protein was labeled to saturation during a 2-day preincubation with (^14 C)valine of constant specific radioactivity (0.5 Ci/mol) prior to the experiment. This was achieved by using a high concentration of valine so that the dilution of (^14 C)valine by intracellular valine and by proteolytically generated valine will be negligible (Ronning, O. W., et al. Exp. Cell Res. 123: 63-72, 1979), thus keeping the specific radioactivity at a constant level. The rate of protein synthesis was calculated from the incorporation of (3H)valine of constant specific activity. The incorporation measurements were related to the total of (^14 C) radioactivity in protein at the beginning of the respective measurement periods and expressed as the percentage per hr (Ronning, O. W. et al, J. Cell, Physiol. 107: 47-57, 1981).
[…] The last measurements were done to test the reversibility of the drugs. Drug concentration: 3.2 mM.

Data set [3] has as its system NHIK 3025 cells. Nature of the data set: Duration of cell cycle-time of synchronized cells. In kind it is cell-based, human. The following applies: 8 hr treatment.
Text: as §1, §2
(§3) For detection of the drug effects on cell-cycle kinetics, the same methods were used as described previously (Lindmo, T., and Pettersen, E. O., Cell Tissue Kinet., 12: 43-57, 1979), (Pettersen, E. O. et al, Eur. J. Cancer Clin. Oncol., 19: 507-514; 1983), (Ronning, O.W. et al., J. Cell. Physiol., 109: 411-419, 1981). Briefly, the selected mitotic cells were seeded into 8 tissue culture flasks (25 sq cm) 5000 cells per flask. The cells divided within 1 hr and attached as doublets to the bottom of the flasks. […] Analyses of durations of mitosis were performed from these observations (Table 4).
This is shown by the data in Table 3, where we have used synchronized cells treated over an 8 hr period starting 2 hr after mitotic selection, i.e. when the cells were in early Gl.

In data set [4] the test system is NHIK 3025 cells. As to the kind of experiment: Duration of mitosis of synchronized cells. It counts as cell-based, human. The following applies: 3.2 mM during mitosis.
Text: as §1, §2, §3
This effect is probably directly related to the aldehyde group (Pettersen et al. Cancer Res. 45: 2085-2091, 1985). If the deuterated aldehyde group induces different biological effects from the undeuterated one it is therefore good reason to expect this to be expressed as a difference in effect on cells in mitosis. In Table 4 results are shown on prolongation of mitosis of synchronized cells treated with benzaldehyde or deuterobenzaldehyde-d1 during mitosis. The numbers in the table represent the percentage of the cells having a duration of mitosis below 1 hr (which is normal for untreated cells) or above the number of hours indicated on top of each column.

The subject of data set [5] is NHIK 3025 cells. The following applies: previous studies; cited from earlier work.
For data set [6], the system named is NHIK 3025 cells. The following applies: Pettersen et al. 1983, cited from earlier work.
Data set [7] concerns NHIK 3025 cells. The following applies: Pettersen et al. 1983, cited from earlier work. This is another data set of the same source.
Data set [8] has as its system NHIK 3025 cells. The following applies: previous studies (Pettersen et al. 1983), cited from earlier work.
For data set [9], the system named is mucous membranes. The following applies: pure form; cited from earlier work.
A short description of data set [10]: Concentration of BG or BG-d1 in blood samples after iv injection (HPLC). It counts as in vivo, male Wistar rats. The protocol:
Measurement of concentration of 4,6-O-benzylidene-D-glucose (BG) or 4,6-O-deuterobenzylidene-d1 -D-glucose (BG-d1) in blood samples (Table 5).
(§4) Blood samples were taken from male Wistar rats immediately before and at several intervals after intravenous injection of BG or BG-d1. Blood serum was separated by centrifugation. Equal amounts of blood serum and HPLC-grade acetonitrile were mixed and centrifuged at 13,000 rpm (15,000×g) for 5 minutes. Samples were then analyzed for BG or BG-d1 content by High Performance Liquid Chromatography (HPLC). Samples were placed in an autosampler programmed for replicate injections of […] each onto a 4.6×250 mm LC18 HPLC column. The column was eluted with 45% aqueous methanol delivered at 1 ml/min. BG or BG-d1 were detected by using a spectrofluorometer set at excitation and emission wavelengths of 255 and 283 nm, respectively. The slit width used was 10 nm. Quantitation of the amount of BG or BG-d1 in serum samples was performed with an electronic integrator calibrated with standard solutions of BG or BG-d1 in the mobile phase (Pettersen et al., Anticancer Res., 6; 147-152, 1986).
We have compared the metabolism in rats of BG as well as of deuterated BG (BG-d1). In Table 5 the serum concentration of BG or BG-d1 is shown at various time points after a single iv injection of each drug, respectively.

Data set [11] in a line: BG or BG-d1 metabolites in blood samples after iv injection (HPLC peak height). In kind it is in vivo, male Wistar rats. The following applies: rat. On the procedure: as §4
Measurement of BG or BG-d1 metabolites in blood samples (Table 6)
HPLC of blood samples was performed as indicated above. Relative amounts of BG- or BG-d1 -metabolite were determined by peak height analysis. The peak height from the electronic integrator (in microvolts) of samples taken 30 minutes after iv injection of BG, or 60 minutes after iv injection of BG-d1 were normalized to 1. All other metabolite peaks were compared with these values.
At the same time as BG or BG-d1 metabolism was being determined, a separate metabolite peak appeared in HPLC chromatograms. The increase in BG- and BG-d1 -metabolite and subsequent clearance was measured.

Data set [12] is described as follows: Stability in vitro. It counts as in vitro ADME.
Where [13] appears, read: read-out: Fraction of cells surviving 24 hr treatment.
Where [14] appears, read: read-out: Cell survival of cells treated for 24 hr.

Read-outs that look alike come from different tables or passages of the source.

Regarding `O=Cc1ccccc1` [Benzaldehyde], the viability at 3200 µM in data set [1] (setting [13]) is 64 ± 18%. Moreover, the viability at 12800 µM in data set [1] (setting [13]) came to 2.4 ± 0.8%. Besides, the Protein synthesis in data set [2] (4 hr treatment, pulse 0-1, during treatment, Table 2, control 6.8 ± 0.9) was 3.7 ± 0.3 %/hr; in data set [2] (4 hr treatment, pulse 4-5, after treatment, Table 2, control 6.8 ± 0.9), 5.1 ± 0.3 %/hr; in data set [2] (4 hr treatment, pulse 5-6, after treatment, Table 2, control 6.8 ± 0.9), 6.7 ± 0.5 %/hr. The Prolongation turned out to be 7.9% in [3] (2 mM, versus control 1) and 63.7% in data set [3] (2.5 mM, versus control 2). In addition, the “Duration of the part of the cell cycle starting 2 hr after selection” value in data set [3] (2 mM, control 1 16.5) is on record as 17.8; in data set [3] (2.5 mM, control 2 16.8) it was 27.5. In addition, the “Percentage of cells with duration of mitosis >4 h” value in data set [4] was determined as 49%. Besides, in data set [4], the “Percentage of cells with duration of mitosis >5 h” value is 35%. In addition, the “Percentage of cells with duration of mitosis >6 h” value in [4] is 21%. Further, the “Percentage of cells with duration of mitosis >3 h” value in data set [4] (control 2%) worked out at 70%. In addition, the “Percentage of cells with duration of mitosis >2 h” value in data set [4] (control 4%) is listed as 87%. Further, in data set [4] (control 17%), the “Percentage of cells with duration of mitosis >1 h” value is reported as 95%. The “Percentage of cells with duration of mitosis <1 h” value in data set [4] (control 83%) amounted to 5%. Besides, the “Inactivation of cells treated during mitosis (in words)” value in data set [5] is given as “inactivated efficiently by benzaldehyde”. For the same compound, the “Protein synthesis inhibition (in words)” value is “inhibit protein sythesis in a reversible manner” in [6] and “protein synthesis inhibition” in data set [6] (listed as benzaldehyde). Also, the “Cell cycle progression (in words)” value in data set [7] is given as “inhibits cell cycle progression”; in data set [7] (listed as benzaldehyde), “cell-cycle progression is reduced”. For the same compound, the “Inhibition during mitosis (in words)” value in data set [8] is recorded as “induces specific inhibition during mitosis”; in data set [8] (listed as benzaldehyde) it was “specific prolongation of mitosis”. In addition, the “Irritating effect on mucous membranes” value in data set [9] is “strongly irritating effect on mucous membranes”.

For the compound `OC1O[C@@H]2COC(c3ccccc3)O[C@H]2[C@H](O)[C@H]1O` (stereo partly drawn) [BG, 4,6-O-benzylidene-D-glucose], in data set [1] (setting [14]), the viability at 6400 µM was determined as 30 ± 5%. The viability at 12800 µM in data set [1] (setting [14]) turned out to be 0.78 ± 0.18%. Further, the Protein synthesis was determined as 2.9 ± 0.7 %/hr in data set [2] (asynchronous cells, 3 hr treatment, pulse 0-1 hr, during treatment, Table 8, control 5.7 ± 0.5); 2.9 ± 0.1 %/hr in data set [2] (asynchronous cells, 3 hr treatment, pulse 2-3 hr, during treatment, Table 8, control 5.7 ± 0.5); 4.8 ± 0.5 %/hr in data set [2] (synchronized cells, 22 hr treatment, pulse 21-22 hr, during treatment, Table 8, control 5.3 ± 0.2); 5.5 ± 0.1 %/hr in [2] (synchronized cells, 22 hr treatment, pulse 23-24 hr, after treatment, Table 8, control 5.3 ± 0.2). Also, the “half-life in vivo (in words)” value in data set [10] (in vivo) was “relatively short half-life in vivo”. Further, the “Amount of unmetabolized drug in blood samples” value in data set [10] (rat, iv, 60 minutes, N.F. = Not Found) is reported as “N.F”. Moreover, the concentration at 0 h in [10] (serum, rat, iv, 0 minutes (estimated), read-out: Amount of unmetabolized drug in blood samples) is 345 µM. Moreover, the concentration at 2 min in data set [10] (serum, rat, iv, 2 minutes, read-out: Amount of unmetabolized drug in blood samples) was 230 ± 16 µM. Further, in data set [10] (serum, rat, iv, 5 minutes, read-out: Amount of unmetabolized drug in blood samples), the concentration at 5 min is 110 ± 10 µM. In addition, the concentration at 10 min in [10] (serum, rat, iv, 10 minutes, read-out: Amount of unmetabolized drug in blood samples) was 96 ± 15 µM. Also, in [10] (serum, rat, iv, 15 minutes, read-out: Amount of unmetabolized drug in blood samples), the concentration at 0.25 h amounted to 66 ± 18 µM. For the same compound, the concentration at 20 min in [10] (serum, rat, iv, 20 minutes, read-out: Amount of unmetabolized drug in blood samples) is 48 ± 11 µM. Also, the concentration at 25 min in data set [10] (serum, rat, iv, 25 minutes, read-out: Amount of unmetabolized drug in blood samples) stood at 40 ± 5 µM. For the same compound, the concentration at 0.5 h in data set [10] (serum, rat, iv, 30 minutes, read-out: Amount of unmetabolized drug in blood samples) turned out to be 33 ± 8 µM. Besides, the half-life in data set [10] (serum, rat, iv, read-out: half-life in vivo) was approximately 5 min. Moreover, the “Relative amount of metabolite” value came to 1.00 in data set [11] (30 minutes after iv injection, BG sample normalized to 1) and 0.927 ± 0.008 in data set [11] (45 minutes after iv injection, maximum peak = 1). For the same compound, in [12], the “Period over which compound is stable in vitro” value is “at least 24 hr”. Also, the “Protein synthesis inhibition (in words)” value in [6] is on record as “only protein synthesis inhibition is known to appear during treatment with BG”.

A word on the half-life: it is the time needed for the level to fall by half in the phase considered.

These data come from US4874780A, “Anticancer compounds” (Norsk Hydro a.s., priority 1987, dated 1989).
